23 compounds from patent US10227357B2, “Compounds and methods for kinase modulation, and indications therefor” (Plexxikon Inc., priority 2012, dated 2019) can be followed below.

The target of assay [1] is T1, c-kit mutant D816V (Homo sapiens, UniProt P10721, D816V/DEL694-753).
T1 construct: residues 551-934, kinase insertion domain residues 694-753 deleted; 6x-histidine (N); made in house; host or cells: E. coli Arctic Express (DE3) RIL (Stratagene)
Nature of the assay: c-Kit mutant D816V biochemical assay, AlphaScreen. The following applies: c-kit D816V biochemical inhibitory activity; read-out: Biochemical activity (IC50 μM) Kit D816V. The method in brief:
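Purified His-tagged c-Kit D816V (E. coli-expressed) assayed in 25 mM HEPES pH 7.2 with Mg/Mn, 5% DMSO and 10 μM ATP, 30 min at room temperature, 8-point 1:3 dilutions. Phosphorylation detected by AlphaScreen with streptavidin donor and PY20 acceptor beads; IC50 from signal versus concentration.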
A general note: In Alpha technology, singlet oxygen from a donor bead excites a nearby acceptor bead.

Assay [2] addresses T2, c-kit kinase (Homo sapiens, UniProt P10721).
T2 construct: The c-kit (or kinase domain thereof) is an active kinase in AlphaScreen; poly-Histidine tag (in-house protein only) (cleaved yes); host or cells: E. coli BL21(DE3)RIL, co-expressed with PTP1B
Nature of the assay: c-Kit biochemical assay, AlphaScreen, 10 μM ATP. The following applies: c-kit biochemical inhibitory activity; read-out: Biochemical activity (IC50 μM) Kit. The method in brief: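 His-tagged c-Kit expressed in E. coli with co-expressed PTP1B (dephosphorylated), tag removed; 0.1 ng per reaction with biotinylated-peptide substrate in 50 mM HEPES pH 7.2, 5 mM MgCl2, 5 mM MnCl2, 5% DMSO, 10 μM ATP, 1 h at room temperature. Phosphorylation detected by AlphaScreen (streptavidin donor, PY20 acceptor beads); IC50 from 8-point 1:3 dilution series.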

T1 sequence (P10721 with tags, fused parts or gaps DEL694-753/D816V): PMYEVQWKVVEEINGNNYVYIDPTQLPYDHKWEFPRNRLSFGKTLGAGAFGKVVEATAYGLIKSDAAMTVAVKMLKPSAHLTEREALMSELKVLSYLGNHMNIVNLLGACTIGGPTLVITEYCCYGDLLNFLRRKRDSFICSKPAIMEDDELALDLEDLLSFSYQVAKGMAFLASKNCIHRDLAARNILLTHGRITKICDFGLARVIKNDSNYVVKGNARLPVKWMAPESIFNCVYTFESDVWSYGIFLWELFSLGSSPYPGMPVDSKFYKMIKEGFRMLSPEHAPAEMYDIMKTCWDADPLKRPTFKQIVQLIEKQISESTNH
T2 sequence (P10721 26-976): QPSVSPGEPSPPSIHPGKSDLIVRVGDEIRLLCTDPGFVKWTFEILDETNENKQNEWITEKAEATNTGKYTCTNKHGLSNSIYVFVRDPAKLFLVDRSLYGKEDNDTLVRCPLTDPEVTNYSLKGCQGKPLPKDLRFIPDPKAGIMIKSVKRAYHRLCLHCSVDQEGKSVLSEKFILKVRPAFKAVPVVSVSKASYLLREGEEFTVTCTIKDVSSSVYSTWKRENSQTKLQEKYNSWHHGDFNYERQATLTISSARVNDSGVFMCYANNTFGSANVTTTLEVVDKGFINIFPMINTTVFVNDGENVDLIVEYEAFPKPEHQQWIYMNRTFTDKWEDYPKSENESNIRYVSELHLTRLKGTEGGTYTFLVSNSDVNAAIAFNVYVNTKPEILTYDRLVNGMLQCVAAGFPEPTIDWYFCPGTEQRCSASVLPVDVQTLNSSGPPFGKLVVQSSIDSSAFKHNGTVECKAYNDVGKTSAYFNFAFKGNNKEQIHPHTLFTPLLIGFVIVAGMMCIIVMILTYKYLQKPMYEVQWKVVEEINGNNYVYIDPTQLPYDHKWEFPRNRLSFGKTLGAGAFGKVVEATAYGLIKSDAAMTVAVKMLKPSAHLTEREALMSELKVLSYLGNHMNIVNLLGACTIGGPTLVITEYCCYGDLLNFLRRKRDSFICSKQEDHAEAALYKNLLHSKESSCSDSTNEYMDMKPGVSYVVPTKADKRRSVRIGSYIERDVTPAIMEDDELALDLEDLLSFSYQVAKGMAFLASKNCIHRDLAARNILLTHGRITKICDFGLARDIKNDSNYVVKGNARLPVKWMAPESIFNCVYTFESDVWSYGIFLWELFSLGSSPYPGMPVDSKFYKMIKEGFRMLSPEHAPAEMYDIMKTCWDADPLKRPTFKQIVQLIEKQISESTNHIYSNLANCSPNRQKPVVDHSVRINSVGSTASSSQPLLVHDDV

For orientation: IC50 means the point on the concentration scale where inhibition reaches its midpoint. For the compound `Cc1cc2c(-c3ccc(NS(=O)(=O)c4ccc(F)cc4)cc3)ncnc2[nH]1` [P-0331, 4-fluoro-N-[4-(6-methyl-7H-pyrrolo[2,3-d]pyrimidin-4-yl)phenyl]benzenesulfonamide], the IC50 in assay [1] and in assay [2] was 1 to 10 µM in each case.

`CS(=O)(=O)Nc1ccc(-c2ncnc3[nH]c(-c4ccc(F)cc4F)cc23)c(F)c1` [P-0333, N-[4-[6-(2,4-difluorophenyl)-7H-pyrrolo[2,3-d]pyrimidin-4-yl]-3-fluoro-phenyl]methanesulfonamide]: the IC50 in assay [1] and in assay [2] was 0.0001 to 1 µM throughout.

With `Cc1cc2c(-c3ccc(NS(=O)(=O)c4cc(F)ccc4F)cc3F)ncnc2[nH]1` [P-0335, 2,5-difluoro-N-[3-fluoro-4-(6-methyl-7H-pyrrolo[2,3-d]pyrimidin-4-yl)phenyl]benzenesulfonamide], the IC50 in assay [1] and in assay [2] was 1 to 10 µM each time.

Take `Cc1cc2c(-c3ccc(S(=O)(=O)Nc4ccc(F)cc4)cc3F)ncnc2[nH]1` [P-0336, 3-fluoro-N-(4-fluorophenyl)-4-(6-methyl-7H-pyrrolo[2,3-d]pyrimidin-4-yl)benzenesulfonamide]: the IC50 in assay [1] lay within 1 to 10 µM; in assay [2] it was 10 to 200 µM.

Take `O=S(=O)(Nc1ccc(-c2ncnc3[nH]c(-c4cc(F)ccc4F)cc23)c(F)c1)c1ccc(Cl)cc1` [P-0337, 4-chloro-N-[4-[6-(2,5-difluorophenyl)-7H-pyrrolo[2,3-d]pyrimidin-4-yl]-3-fluoro-phenyl]benzenesulfonamide]: the IC50 in assay [1] lay within 0.0001 to 1 µM; in assay [2] it was 10 to 200 µM.

Regarding `O=S(=O)(Nc1ccc(-c2ncnc3[nH]c(-c4cc(F)ccc4F)cc23)c(F)c1)C1CC1` [P-0338, N-[4-[6-(2,5-difluorophenyl)-7H-pyrrolo[2,3-d]pyrimidin-4-yl]-3-fluoro-phenyl]cyclopropanesulfonamide], the IC50 in assay [1] fell in the range of 1 to 10 µM; in assay [2], 10 to 200 µM.

For the compound `CS(=O)(=O)Nc1ccc(-c2ncnc3[nH]c(-c4cc(F)ccc4F)cc23)c(F)c1` [P-0339, N-[4-[6-(2,5-difluorophenyl)-7H-pyrrolo[2,3-d]pyrimidin-4-yl]-3-fluoro-phenyl]methanesulfonamide], the IC50 in assay [1] is 0.0001 to 1 µM; in assay [2], 1 to 10 µM.

As for `O=S(=O)(Nc1ccc(-c2ncnc3[nH]c(-c4ccc(F)cc4F)cc23)c(F)c1)C1CC1` [P-0340, N-[4-[6-(2,4-difluorophenyl)-7H-pyrrolo[2,3-d]pyrimidin-4-yl]-3-fluoro-phenyl]cyclopropanesulfonamide], the IC50 in assay [1] lay in the range of 0.0001 to 1 µM; in assay [2] it was 10 to 200 µM.

On to `Cc1cc2c(-c3ccc(NS(=O)(=O)c4cc(F)cc(F)c4)cc3F)ncnc2[nH]1` [P-0342, 3,5-difluoro-N-[3-fluoro-4-(6-methyl-7H-pyrrolo[2,3-d]pyrimidin-4-yl)phenyl]benzenesulfonamide], for which the IC50 in assay [1] and in assay [2] was 10 to 200 µM in each case.

`Cc1cc2c(-c3ccc(S(=O)(=O)Nc4ccc(F)cc4)c(F)c3)ncnc2[nH]1` [P-0343, 2-fluoro-N-(4-fluorophenyl)-4-(6-methyl-7H-pyrrolo[2,3-d]pyrimidin-4-yl)benzenesulfonamide]: the IC50 in assay [1] lay within 1 to 10 µM; in assay [2], 10 to 200 µM.

For `Cc1cc2c(-c3ccc(NS(=O)(=O)c4ccc(Cl)cc4)c(F)c3)ncnc2[nH]1` [P-0344, 4-chloro-N-[2-fluoro-4-(6-methyl-7H-pyrrolo[2,3-d]pyrimidin-4-yl)phenyl]benzenesulfonamide], the IC50 in assay [1] and in assay [2] was 1 to 10 µM each time.

Consider `Cc1cc2c(-c3ccc(NS(=O)(=O)c4cccc(Cl)c4)c(F)c3)ncnc2[nH]1` [P-0345, 3-chloro-N-[2-fluoro-4-(6-methyl-7H-pyrrolo[2,3-d]pyrimidin-4-yl)phenyl]benzenesulfonamide], for which the IC50 in assay [1] and in assay [2] was 1 to 10 µM throughout.

As for `Cc1cc2c(-c3ccc(NS(=O)(=O)c4ccc(F)cc4)c(F)c3)ncnc2[nH]1` [P-0346, 4-fluoro-N-[2-fluoro-4-(6-methyl-7H-pyrrolo[2,3-d]pyrimidin-4-yl)phenyl]benzenesulfonamide], the IC50 in assay [1] and in assay [2] was 1 to 10 µM each time.

Regarding `Cc1cc2c(-c3ccc(NS(=O)(=O)c4cccc(F)c4)c(F)c3)ncnc2[nH]1` [P-0347, 3-fluoro-N-[2-fluoro-4-(6-methyl-7H-pyrrolo[2,3-d]pyrimidin-4-yl)phenyl]benzenesulfonamide], the IC50 in assay [1] and in assay [2] was 1 to 10 µM throughout.

Regarding `Cc1cc2c(-c3ccc(NS(=O)(=O)c4ccc(Cl)cc4)cc3F)ncnc2[nH]1` [P-0349, 4-chloro-N-[3-fluoro-4-(6-methyl-7H-pyrrolo[2,3-d]pyrimidin-4-yl)phenyl]benzenesulfonamide], the IC50 in assay [1] and in assay [2] was 1 to 10 µM in each case.

Turning to `Cc1cc2c(-c3ccc(NS(=O)(=O)c4ccc(C)c(F)c4)c(F)c3)ncnc2[nH]1` [P-0350, 3-fluoro-N-[2-fluoro-4-(6-methyl-7H-pyrrolo[2,3-d]pyrimidin-4-yl)phenyl]-4-methyl-benzenesulfonamide], the IC50 in assay [1] and in assay [2] was 1 to 10 µM in each case.

In the case of `Cc1cc2c(-c3ccc(NS(=O)(=O)c4cccc(Cl)c4F)c(F)c3)ncnc2[nH]1` [P-0351, 3-chloro-2-fluoro-N-[2-fluoro-4-(6-methyl-7H-pyrrolo[2,3-d]pyrimidin-4-yl)phenyl]benzenesulfonamide], the results for the IC50 in assay [1] and in assay [2] were 10 to 200 µM and 1 to 10 µM, respectively.

In the case of `Cc1cc2c(-c3ccc(NS(=O)(=O)c4ccc(Cl)cc4F)cc3F)ncnc2[nH]1` [P-0352, 4-chloro-2-fluoro-N-[3-fluoro-4-(6-methyl-7H-pyrrolo[2,3-d]pyrimidin-4-yl)phenyl]benzenesulfonamide], the IC50 in assay [1] fell in the range of 1 to 10 µM; in assay [2], 0.0001 to 1 µM.

With `CS(=O)(=O)Nc1ccc(-c2ncnc3[nH]c(-c4ccc(F)cc4)cc23)c(F)c1F` [P-0353, N-[2,3-difluoro-4-[6-(4-fluorophenyl)-7H-pyrrolo[2,3-d]pyrimidin-4-yl]phenyl]methanesulfonamide], the results for the IC50 in assay [1] and in assay [2] were 0.0001 to 1 µM and 1 to 10 µM, respectively.

Consider `O=S(=O)(NCc1ccc(F)cc1)c1ccc(-c2ncnc3[nH]c(-c4ccc(F)cc4)cc23)c(F)c1` [P-0354, 3-fluoro-N-[(4-fluorophenyl)methyl]-4-[6-(4-fluorophenyl)-7H-pyrrolo[2,3-d]pyrimidin-4-yl]benzenesulfonamide], for which the figures for the IC50 in assay [1] and in assay [2] were 0.0001 to 1 µM and 10 to 200 µM, respectively.

Consider `Cc1cc2c(-c3ccc(NS(=O)(=O)c4cccc(Cl)c4)cc3F)ncnc2[nH]1` [P-0357, 3-chloro-N-[3-fluoro-4-(6-methyl-7H-pyrrolo[2,3-d]pyrimidin-4-yl)phenyl]benzenesulfonamide], for which the IC50 in assay [1] and in assay [2] was 1 to 10 µM throughout.

Consider `Cc1cc2c(-c3ccc(NS(=O)(=O)c4cccc(F)c4)cc3F)ncnc2[nH]1` [P-0358, 3-fluoro-N-[3-fluoro-4-(6-methyl-7H-pyrrolo[2,3-d]pyrimidin-4-yl)phenyl]benzenesulfonamide], for which the IC50 in assay [1] and in assay [2] was 1 to 10 µM in each case.

Regarding `Cc1cc2c(-c3ccc(NS(=O)(=O)c4ccc(OC(F)F)cc4)c(F)c3)ncnc2[nH]1` [P-0360, 4-(difluoromethoxy)-N-[2-fluoro-4-(6-methyl-7H-pyrrolo[2,3-d]pyrimidin-4-yl)phenyl]benzenesulfonamide], the IC50 lay in the range of 10 to 200 µM in assay [1] and 1 to 10 µM in assay [2].
